This is an account of results in publication PMC5746282, “Polypyridylruthenium(II) complexes exert anti-schistosome activity and inhibit parasite acetylcholinesterases” (PLoS Neglected Tropical Diseases, 2017).

The test system of assay [1] is human bile duct cell line H69. Briefly: MTT cytotoxicity assay. In kind it is cell-based. As to conditions: 0.1 μM, 72 h.
The test system of assay [2] is acetylcholinesterase (AChE). It is filed as biochemical, S. mansoni. The note with it: 1 µM.
Assay [3] concerns the target acetylcholinesterase (AChE). In kind it is biochemical, S. haematobium.
Assay [4] has as its system nucleotide pyrophosphatase-phosphodiesterase 5 (SmNPP-5). It is filed as biochemical, S. mansoni. As to conditions: 10 µM.
The test system of assay [5] is alkaline phosphatase (AP). In kind it is biochemical, S. mansoni. The note with it: 10 µM.
Assay [6] deals with acetylcholinesterase (AChE). It is filed as biochemical, S. mansoni.

Like-named read-outs stand apart in the source and are kept apart here.

Turning to `COP(=O)(OC)OC=C(Cl)Cl` [Dichlorvos, dichlorvos], the cells killed in assay [1] was 100%.
Consider [Ru(phen)2(Me2bpy)]^2+, for which the “AChE Inhibition (%)” value in assay [2] is recorded as 66.5 ± 5.8%; in assay [3] (1 µM) it was 13.3 ± 1.8%; in assay [6] (1 µM), 9.3 ± 1.8%. Further, the IC50 in assay [3] turned out to be 90.2 ± 1.2 µM; in assay [6], 67 ± 11.6 µM. Also, the “SmNPP-5 Inhibition (%)” value in assay [4] amounted to 2%. Moreover, the “AP Inhibition (%)” value in assay [5] amounted to 3%.
